Tested on: pentagastrin-stimulated acid secretion of the perfused rat stomach
Experiment: Secretion-inhibiting action on the perfused rat stomach (pentagastrin-stimulated acid secretion, intraduodenal administration in vivo)
Details: anesthetized CD rat, female, pentagastrin 1 μg/kg i.v. infusion
Source text: Testing of the Secretion-Inhibiting Action on the Perfused Rat Stomach
In Table A which follows, the influence of the compounds according to the invention on the pentagastrin-stimulated acid secretion of the perfused rat stomach after intraduodenal administration in vivo is shown.
The abdomen of anesthetized rats (CD rat, female, 200-250 g; 1.5 g/kg i.m. urethane) was opened after tracheotomy by a median upper abdominal incision and a PVC catheter was fixed transorally in the esophagus and another via the pylorus such that the ends of the tube just projected into the gastric lumen. The catheter leading from the pylorus led outward into the right abdominal wall through a side opening.
After thorough rinsing (about 50-100 ml), warm (37° C.) physiological NaCl solution was continuously passed through the stomach (0.5 ml/min, pH 6.8-6.9; Braun-Unita I). The pH (pH meter 632, glass electrode EA 147; φ=5 mm, Metrohm) and, by titration with a freshly prepared 0.01 N NaOH solution to pH 7 (Dosimat 665 Metrohm), the secreted HCl were determined in the effluent in each case collected at an interval of 15 minutes.
The gastric secretion was stimulated by continuous infusion of […] (=1.65 ml/h) of i.v. pentagastrin (left femoral vein) about 30 min after the end of the operation (i.e. after determination of 2 preliminary fractions). […]

Cc1nc2c3c(ccn2c1C)[C@H](C)[C@H](O)CN3 [Example 8, (7S,8S,9R)-8-Hydroxy-2,3,7-trimethyl-7,8,9,10-tetrahydroimidazo[1.2-h][1.7]naphthyridine]
Inhibition of acid secretion (%) (dose 1 μmol/kg i.d.): 93%

(7S,8S,9R)-7-Cyanomethyl-8-hydroxy-2,3-dimethyl-7,8,9,10-tetrahydroimidazo[1.2h]-[1.7]naphthyridine [Example 9]
Inhibition of acid secretion (%) (dose 0.3 μmol/kg i.d.): 52%

— patent US20040235883A1, “Alkyl-substituted imidazopyridines for the treatment of gastrointestinal disorders” (priority 2001, published 2004)
